What all share (format): biochemical
Test [1] concerns the target Butyrylcholinesterase (BuChE) (Homo sapiens, UniProt P06276). Briefly: Butyrylcholinesterase inhibition efficiency (butyrylthiocholine/DTNB absorbance). How it is done: (§1) Concentrations of 0, 2, 5, 10, 20, 50, 100, and 200 μM of the synthesized compounds were prepared by dilution in 10% DMSO, 63% phosphate buffer, and 27% tween 80, and 50 μl was dispensed into a 96-well plate. Acetylcholinesterase or butyrylcholinesterase was prepared at 0.5 U/ml, 50 μl was added to a 96-well plate, mixed with the aliquoted compound, and left for 10 minutes. The substrate, acetylthiocholine or butyrylthiocholine, was prepared at 0.4mg/ml, then 50 μl was added to a 96-well plate and left for 20 minutes. Dithionitrobenzoic acid (DTNB) was prepared at 1.2 mg/ml, then 50 μl was added to a 96-well plate and left for 10minutes.

Test [2] deals with T1, Monoamine oxidase B (MAO-B) (Homo sapiens, UniProt P27338).
T1 sequence (P27338 1-520): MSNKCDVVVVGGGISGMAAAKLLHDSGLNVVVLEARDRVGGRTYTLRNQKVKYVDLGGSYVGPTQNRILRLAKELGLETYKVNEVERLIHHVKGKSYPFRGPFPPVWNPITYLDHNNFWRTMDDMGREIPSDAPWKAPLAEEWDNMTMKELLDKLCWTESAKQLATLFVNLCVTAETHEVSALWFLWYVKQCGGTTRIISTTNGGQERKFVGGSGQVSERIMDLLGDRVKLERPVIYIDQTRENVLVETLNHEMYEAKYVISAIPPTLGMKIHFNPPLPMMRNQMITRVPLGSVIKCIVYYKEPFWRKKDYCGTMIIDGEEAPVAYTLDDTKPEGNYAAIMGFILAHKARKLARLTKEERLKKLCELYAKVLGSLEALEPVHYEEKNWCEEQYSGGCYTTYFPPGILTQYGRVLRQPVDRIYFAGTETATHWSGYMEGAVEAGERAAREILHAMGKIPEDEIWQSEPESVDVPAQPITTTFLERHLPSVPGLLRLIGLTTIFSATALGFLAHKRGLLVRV
Kind of test: Monoamine oxidase B inhibition efficiency (kynuramine fluorescence). How it is done:
Samples were prepared by dilution with DMSO to give concentrations of 0, 2, 5, 10, 20, 50, 100, and 200 μM of the compound, and 5 μl was dispensed into a 96-well plate. 135 μl of potassium phosphate buffer (0.1 M, 7.4 pH) was dispensed into a 96-well plate. Monoamine oxidase B was prepared at 40 μl/ml, and 50 μl was added to the 96-well plate, mixed with the dispensed compound, and left for 20 minutes. The substrate, kynuramine solution, was prepared at 100 μM, then 10 μl was added to a 96-well plate and left for 10 min. The reaction was stopped by adding 75 μl of NaOH (2N). For the fluorescence blank experiment, potassium phosphate buffer was added instead of monoamine oxidase B to correct the compound-induced fluorescence intensity values.

Test [3] has as its target Acetylcholinesterase (AChE) (Homo sapiens, UniProt P22303). Briefly: Acetylcholinesterase inhibition efficiency (acetylthiocholine/DTNB absorbance). The method, then:
as §1

The mark [4] stands for this setting: 0.5 U/ml enzyme, butyrylthiocholine substrate, compound 0-200 μM, read-out: IC50 for BuChE.
The mark [5] stands for this setting: kynuramine substrate, potassium phosphate buffer pH 7.4, compound 0-200 μM, read-out: IC50 for MAOB.
[6] abbreviates: 0.5 U/ml enzyme, acetylthiocholine substrate, compound 0-200 μM, read-out: IC50 for AChE.

Read-outs that look alike come from different tables or passages of the source.

Results on 17 compounds are retold here after patent US20240383830A1, “NOVEL CANNABIDIOL DERIVATIVE, METHOD FOR PREPARING SAME, AND COMPOSITION FOR COGNITIVE FUNCTION I[…]” (priority 2021, published 2024).

Butyrylcholinesterase (BuChE), sequence (P06276 29-602): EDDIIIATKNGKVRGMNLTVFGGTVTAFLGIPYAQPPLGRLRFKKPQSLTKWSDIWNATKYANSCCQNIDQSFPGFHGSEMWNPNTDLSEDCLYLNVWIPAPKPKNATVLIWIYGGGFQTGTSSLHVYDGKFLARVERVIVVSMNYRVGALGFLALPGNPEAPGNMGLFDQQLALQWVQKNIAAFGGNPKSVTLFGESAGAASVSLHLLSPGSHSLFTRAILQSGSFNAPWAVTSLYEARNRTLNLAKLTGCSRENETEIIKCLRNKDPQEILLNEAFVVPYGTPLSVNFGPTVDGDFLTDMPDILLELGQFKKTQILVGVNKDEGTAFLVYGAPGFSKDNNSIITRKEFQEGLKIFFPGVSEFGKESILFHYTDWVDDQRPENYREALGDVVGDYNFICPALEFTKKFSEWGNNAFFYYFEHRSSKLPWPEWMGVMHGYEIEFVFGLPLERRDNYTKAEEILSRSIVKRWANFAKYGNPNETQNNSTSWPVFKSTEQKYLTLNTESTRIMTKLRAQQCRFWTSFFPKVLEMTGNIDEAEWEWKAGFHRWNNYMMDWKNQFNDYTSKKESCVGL
Acetylcholinesterase (AChE), sequence (P22303 32-614, species assumed): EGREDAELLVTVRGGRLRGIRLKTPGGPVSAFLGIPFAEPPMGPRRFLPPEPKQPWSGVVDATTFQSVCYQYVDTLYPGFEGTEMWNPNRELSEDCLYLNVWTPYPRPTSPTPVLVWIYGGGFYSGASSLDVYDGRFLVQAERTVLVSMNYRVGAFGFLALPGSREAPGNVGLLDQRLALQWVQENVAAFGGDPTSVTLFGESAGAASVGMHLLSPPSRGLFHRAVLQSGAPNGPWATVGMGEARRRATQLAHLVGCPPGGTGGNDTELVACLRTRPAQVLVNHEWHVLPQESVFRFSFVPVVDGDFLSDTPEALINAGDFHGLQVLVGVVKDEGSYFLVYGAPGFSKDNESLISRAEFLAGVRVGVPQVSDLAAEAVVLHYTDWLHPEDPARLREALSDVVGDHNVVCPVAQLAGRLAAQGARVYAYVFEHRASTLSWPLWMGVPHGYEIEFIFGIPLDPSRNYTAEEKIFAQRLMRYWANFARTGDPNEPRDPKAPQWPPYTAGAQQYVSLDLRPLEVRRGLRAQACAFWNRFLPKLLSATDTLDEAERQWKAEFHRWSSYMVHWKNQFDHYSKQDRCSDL

The IC50 is the concentration that gives 50% inhibition. With `C=C(C)[C@@H]1CCC(C)=C[C@H]1c1c(O)cc(O)cc1CCCCC` [compound 1a, (1′R,2′R)-5′-methyl-6-pentyl-2′-(prop-1-en-2-yl)-1′,2′,3′,4′-tetrahydro-[1, 1′-biphenyl]-2,4-diol], the values for the IC50 in test [1], in test [2] and in test [3] were 1.7 µM, 44 µM and 3.1 µM, respectively.
With `C=C(C)[C@@H]1CCC(C)=C[C@H]1c1c(O)cc(O)cc1CCC` [compound 1b, (1′R,2′R)-5′-methyl-2′-(prop-1-en-2-yl)-6-propyl-1′,2′,3′,4′-tetrahydro-[1, 1′-biphenyl]-2,4-diol], the values for the IC50 in test [1], in test [2] and in test [3] were 4 µM, 31.5 µM and 58.2 µM, respectively.
As for `C=C(C)[C@@H]1CCC(C)=C[C@H]1c1c(C)cc(O)cc1O` [compound 1c, (1′R,2′R)-5′,6-dimethyl-2′-(prop-1-en-2-yl)-1′,2′,3′,4′-tetrahydro-[1, 1′-biphenyl]-2,4-diol], the results for the IC50 in test [1], in test [2] and in test [3] were 1.7 µM, 24.8 µM and 2.6 µM, respectively.
As for `C=C(C)[C@@H]1CCC(C)=C[C@H]1c1c(O)cc(O)cc1CCc1ccccc1` [compound 1d, (1′R,2′R)-5′-methyl-6-phenethyl-2′-(prop-1-en-2-yl)-1′,2′,3′,4′-tetrahydro-[1, 1′-biphenyl]-2,4-diol], the IC50 in test [1] was determined as 2.6 µM; in test [3], 3.3 µM.
With `C=C(C)[C@@H]1CCC(C)=C[C@H]1c1c(O)cc(O)cc1Br` [compound 1e, (1′R,2′R)-6-bromo-5′-methyl-2′-(prop-1-en-2-yl)-1′,2′,3′,4′-tetrahydro-[1,1′-biphenyl]-2,4-diol], the IC50 in test [1] (setting [4]) came out at 9.3 µM; in test [2] (setting [5]), 26.2 µM; in test [3] it was 20 µM.
Take `C=C(C)[C@@H]1CCC(C)=C[C@H]1c1cc(Cl)c(O)cc1O` [compound 1f, (1′R,2′R)-5-chloro-5′-methyl-2′-(prop-1-en-2-yl)-1′,2′,3′,4′-tetrahydro-[1, 1′-biphenyl]-2,4-diol]: the IC50 was found to be 19.3 µM in test [1] (setting [4]), 29.9 µM in test [2] (setting [5]) and 20 µM in test [3].
On the same counts, the results for `C=C(C)[C@@H]1CCC(C)=C[C@H]1c1c(O)cc(O)cc1C#N` [compound 1g, (1′R,2′R)-4,6-dihydroxy-5′-methyl-2′-(prop-1-en-2-yl)-1′,2′,3′,4′-tetrahydro-[1, 1′-biphenyl]-2-carbonitrile] are 8.6 µM, 61.1 µM and 74 µM.
As for `C=C(C)[C@@H]1CCC(C)=C[C@H]1c1c(O)cc(O)cc1OC` [compound 1h, (1′R,2′R)-6-methoxy-5′-methyl-2′-(prop-1-en-2-yl)-1′,2′,3′,4′-tetrahydro-[1, 1′-biphenyl]-2,4-diol], the IC50 in test [1] (setting [4]) came to 55.3 µM; in test [2] (setting [5]), 35.8 µM; in test [3] (setting [6]), 78 µM.
Consider `C=C(C)[C@@H]1CCC(C)=C[C@H]1c1ccc(O)c(C(C)=O)c1O` [compound 1i, 1-((1′R,2′R)-2,4-dihydroxy-5′-methyl-2′-(prop-1-en-2-yl)-1′,2′,3′,4′-tetrahydro-[1, 1′-biphenyl]-3-yl)ethan-1-one], for which the IC50 in test [1] (setting [4]) worked out at 7.3 µM; in test [2] (setting [5]), 16.4 µM; in test [3] (setting [6]), 6.6 µM.
As to `C=C(C)[C@@H]1CCC(C)=C[C@H]1c1c(O)c(C(C)=O)c(O)c([C@@H]2C=C(C)CC[C@H]2C(=C)C)c1O` [compound 1j, 1-((1R,1″R,2R,2″R)-2′,4′,6′-trihydroxy-5,5″-dimethyl-2,2″-di (prop-1-en-2-yl)-1,1″,2,2″,3,3″,4,4″-octahydro-[1,1′:3′,1″-terphenyl]-5′-yl)ethan-1-one], the IC50 amounted to 30.6 µM in test [1] (setting [4]), 142 µM in test [2] (setting [5]) and 2 µM in test [3] (setting [6]).
As for `C=C(C)[C@H]1CCC(C)=C[C@@H]1c1c(O)cc(OC)c([C@@H]2C=C(C)CC[C@H]2C(=C)C)c1O` [compound 1k, (1R,1″S,2R,2″S)-6′-methoxy-5,5″-dimethyl-2,2″-di(prop-1-en-2-yl)-1, 1″,2,2″,3,3″,4,4″-octahydro-[1,1′:3′,1″-terphenyl]-2′,4′-diol], in test [3] (setting [6]), the IC50 turned out to be 5.3 µM.
As for `C=C(C)[C@@H]1CCC(C)=C[C@H]1c1c(O)cc(O)c(C(C)=O)c1O` [compound 1l, 1-((1′R,2′R)-2,4,6-trihydroxy-5′-methyl-2′-(prop-1-en-2-yl)-1′,2′,3′,4′-tetrahydro-[1,1′-biphenyl]-3-yl)ethan-1-one], the results for the IC50 in test [1] (setting [4]), in test [2] (setting [5]) and in test [3] (setting [6]) were 6.6 µM, 7.99 µM and 23.3 µM, respectively.
For the compound `C=C(C)[C@@H]1CCC(C)=C[C@H]1c1ccc(O)c(Br)c1O` [compound 1m, (1′R,2′R)-3-bromo-5′-methyl-2′-(prop-1-en-2-yl)-1′,2′,3′,4′-tetrahydro-[1, 1′-biphenyl]-2,4-diol], the IC50 in test [1] (setting [4]) is 44.6 µM; in test [2] (setting [5]), 118 µM; in test [3], 42.6 µM.
Turning to `C=C(C)[C@@H]1CCC(C)=C[C@H]1c1ccc(O)c(C(=O)O)c1O` [compound 1n, (1′R,2′R)-2,4-dihydroxy-5′-methyl-2′-(prop-1-en-2-yl)-1′,2′,3′,4′-tetrahydro-[1, 1′-biphenyl]-3-carboxylic acid], the IC50 in test [1] (setting [4]) was 13.3 µM; in test [2] (setting [5]), 30.7 µM; in test [3] (setting [6]), 10.6 µM.
In the case of `C=C(C)[C@@H]1CCC(C)=C[C@H]1c1cc(C(=O)NCCc2ccc(OC)cc2)c(O)cc1O` [compound 1o, (1′R,2′R)-4,6-dihydroxy-N-(4-methoxyphenethyl)-5′-methyl-2′-(prop-1-en-2-yl)-1′, 2′,3′,4′-tetrahydro-[1,1′-biphenyl]-3-carboxamide], the IC50 in test [1] (setting [4]) is 27.3 µM; in test [2] (setting [5]), 56.1 µM; in test [3] (setting [6]), 15.3 µM.
Take `C=C(C)[C@@H]1CCC(C)=C[C@H]1c1c(O)cc(O)cc1C(C)=O` [compound 1p, 1-((1′R,2′R)-4,6-dihydroxy-5′-methyl-2′-(prop-1-en-2-yl)-1′,2′,3′,4′-tetrahydro-[1, 1′-biphenyl]-2-yl) ethan-1-one]: the IC50 in test [1] (setting [4]) turned out to be 2 µM; in test [2] (setting [5]), 2.1 µM; in test [3] (setting [6]), 4.6 µM.
As for `C=C(C)[C@@H]1CCC(C)=C[C@H]1c1cc(C(=O)NCCc2ccc(O)cc2)c(O)cc1O` [compound 1q, (1′R,2′R)-4,6-dihydroxy-N-(4-hydroxyphenethyl)-5′-methyl-2′-(prop-1-en-2-yl)-1′, 2′,3′,4′-tetrahydro-[1,1′-biphenyl]-3-carboxamide], the IC50 in test [1] (setting [4]) was determined as 3.3 µM; in test [2] (setting [5]) it was 18.1 µM; in test [3], 7.3 µM.
